Measurements: PubChem BioAssay AID2060487 (Molecular Pharmacology Branch, DTP, NCI, 2025)
“And” between values parts separate entries of the source, which are not always exact repeats. Equal values may be shown once.

System: 997537-175-T-J1-PDC complex spheroid viability
Test: Anticancer human tumor 997537-175-T-J1-PDC patient-derived colon adenocarcinoma cell line growth inhibition [GQUAD]
Details: for viability, T/C: stronger effect = lower value
Source text: DNA G-quadruplex Stabilizer Agents in Combinations in Complex Spheroids
A high-throughput screen of multi-cell type tumor spheroids was designed to identify active combinations of DNA G-quadruplex stabilizer agents and targeted small molecules. Complex spheroids include a stromal component modeled by human endothelial cells (HUVEC) and fibroblasts modeled by human mesenchymal stem cells (MSCs). The concentration ranges selected for each drug and investigational agent were based upon clinically achievable concentrations if the clinical Cmax of the agent was known.
Compounds. The drugs and investigational agents: pidnarulex (CX-5461; NSC782164), APTO-253 (NSC789042), BRACO-19 (NSC847499), peposertib (NSC802822), ceralasertib (NSC780249), elimusertib (NSC800525), camonsertib (NSC841442), AZD-1390 (NSC803789), olaparib (NSC753686), talazoparib (NSC767125), ART-558 (NSC835418), sotorasib (NSC818433), MRTX-1133 (NSC836407), SN-38 (NSC673596), topotecan (NSC609699), etoposide (NSC141540), doxorubicin (NSC123127), gemcitabine (NSC613327), 5-fluorouracil (NSC19893), paclitaxel (NSC125973), vemurafenib (NSC761431), panobinostat (NSC761190), R-306465 (JNJ-16241199; NSC773264), adavosertib (NSC754352), TP-3654 (NSC805149), carboplatin (NSC241240), KSQ-4279 (NSC840948), and staurosporine (NSC755774) were obtained from the National Cancer Institute (NCI) Developmental Therapeutics Program Chemical Repository (34). The FDA-approved anticancer drug set is available from the NCI Developmental Therapeutics Program. […] The stock solutions were prepared in dimethyl sulfoxide (DMSO, Sigma-Aldrich, St. Louis, MO, cat. D2650) at 800-fold the tested concentration and stored at -70 degrees C prior to their use. All drugs and investigational agents were tested over a range starting from a high concentration at or near the clinical Cmax and decreasing in half-log increments. If the clinical Cmax for an agent had not been determined, the highest concentration tested was 10 microM.
2.3 Cell Culture. All cells were maintained in an incubator at 37 degrees C and 5% CO2 with 95% humidity. The PDC lines were cultured according to standard operating procedures established by the NCI PDMR. All PDCs were thawed and cultured in Matrigel-coated flasks prepared with a working solution of 1X Ham's F-12 nutrient mix, without supplementation (Invitrogen, cat. 11765054), 100 U/mL penicillin-streptomycin (Invitrogen, cat. 15140122), and 2.5% Matrigel (Corning Inc., cat. 354248) for the first three passages. The 857933-349-R-J2-PDC line was cultured in 6C/Colon 1B media, which includes advanced DMEM/F-12 (Thermo Fisher Scientific, cat. 12634028), 10 mM HEPES (Thermo Fisher Scientific, cat. 15630080), 1X GlutaMAX supplement (Thermo Fisher Scientific, cat. 35050061), 0.1 mg/mL primocin (InvivoGen, cat. ant-pm-2), 10% defined fetal bovine serum, heat inactivated (HyClone Laboratories Inc., cat. SH30070.03HI), 50% L-WRN conditioned media (ATCC, cat. CRL-3276), 1.25 mM N-Acetyl-L-cysteine (Sigma-Aldrich, cat. A9165), 10 mM nicotinamide (Sigma-Aldrich, cat. N0636), 1X B-27 supplement (Thermo Fisher Scientific, cat. 17504044), 1X N-2 supplement (Thermo Fisher Scientific, cat. 17502048), 10 microM Y-27632 dihydrochloride (Tocris Bioscience, cat. 1254), and 50 ng/mL human EGF recombinant protein (Thermo Fisher Scientific, cat. PHG0311). The 485176-168-R4-J1-PDC line was cultured in Panc media, which includes all 6C/Colon 1B media components plus 100 ng/mL human FGF-10 (Thermo Fisher Scientific, cat. 100-26), 500 nM SB-431542 (Selleckchem, cat. S1067), and gastrin (Tocris, cat. 3006).
[…]

[1] = curve of first compound, second compound 0.0316 µM
[2] = curve of first compound, second compound 0.1 µM
[3] = curve of first compound, second compound 0.316 µM
[4] = curve of first compound, second compound 1 µM
[5] = curve of first compound, second compound 3.16 µM
[6] = curve of first compound, second compound 10 µM
[7] = second compound 0.0316 µM, first compound 0.0316 µM
[8] = second compound 0.0316 µM, first compound 0.316 µM
[9] = second compound 0.1 µM, first compound 0.0316 µM
[10] = second compound 0.1 µM, first compound 0.316 µM
[11] = second compound 0.316 µM, first compound 0.0316 µM
[12] = second compound 0.316 µM, first compound 0.316 µM
[13] = second compound 1 µM, first compound 0.0316 µM
[14] = second compound 1 µM, first compound 0.316 µM
[15] = second compound 3.16 µM, first compound 0.0316 µM
[16] = second compound 3.16 µM, first compound 0.316 µM
[17] = second compound 10 µM, first compound 0.0316 µM
[18] = second compound 10 µM, first compound 0.316 µM
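Further: spheroids exposed to the agents for 7 days.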
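Wherever viability, T/C is given: 100% = DMSO vehicle control viability.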

`Cn1ncnc1[C@H]1c2n[nH]c(=O)c3cc(F)cc(c23)N[C@@H]1c1ccc(F)cc1` + CN(C)c1ccc(Nc2c3ccc(NC(=O)CCN4CCCC4)cc3nc3cc(NC(=O)CCN4CCCC4)ccc23)cc1 was tested, and the IC50 [1] was over 316 nM, the IC50 [2] was over 316 nM and the IC50 [3] was over 316 nM. For the same compound, the IC50 [4] was over 316 nM, the IC50 [5] was over 316 nM and the IC50 [6] was over 316 nM. For the same compound, the viability, T/C (second compound 0.0316 µM, first compound 0.000999 µM) was 103%, the viability, T/C (second compound 0.0316 µM, first compound 0.00316 µM) was 88.8% and the viability, T/C (second compound 0.0316 µM, first compound 0.00999 µM) was 106%. It also gave a viability, T/C [7] of 66.6%, a viability, T/C (second compound 0.0316 µM, first compound 0.0999 µM) of 81.1% and a viability, T/C [8] of 68.1%. For the same compound, the viability, T/C (second compound 0.1 µM, first compound 0.000999 µM) was 100%, the viability, T/C (second compound 0.1 µM, first compound 0.00316 µM) was 97% and the viability, T/C (second compound 0.1 µM, first compound 0.00999 µM) was 91.9%. For the same compound, the viability, T/C [9] was 63%, the viability, T/C (second compound 0.1 µM, first compound 0.0999 µM) was 102% and the viability, T/C [10] was 82.1%. For the same compound, the viability, T/C (second compound 0.316 µM, first compound 0.000999 µM) was 94.8%, the viability, T/C (second compound 0.316 µM, first compound 0.00316 µM) was 102% and the viability, T/C (second compound 0.316 µM, first compound 0.00999 µM) was 95.2%. It also gave a viability, T/C [11] of 91.2%, a viability, T/C (second compound 0.316 µM, first compound 0.0999 µM) of 79.7% and a viability, T/C [12] of 86.8%. The viability, T/C (second compound 1 µM, first compound 0.000999 µM) was 84.7%, the viability, T/C (second compound 1 µM, first compound 0.00316 µM) was 70.5% and the viability, T/C (second compound 1 µM, first compound 0.00999 µM) was 79.2%. For the same compound, the viability, T/C [13] was 86.5%, the viability, T/C (second compound 1 µM, first compound 0.0999 µM) was 98.5% and the viability, T/C [14] was 79.6%. It also gave a viability, T/C (second compound 3.16 µM, first compound 0.000999 µM) of 69.4%, a viability, T/C (second compound 3.16 µM, first compound 0.00316 µM) of 83.6% and a viability, T/C (second compound 3.16 µM, first compound 0.00999 µM) of 94.6%. For the same compound, the viability, T/C [15] was 91.3%, the viability, T/C (second compound 3.16 µM, first compound 0.0999 µM) was 94.8% and the viability, T/C [16] was 85.9%. It also gave a viability, T/C (second compound 10 µM, first compound 0.000999 µM) of 77.1%, a viability, T/C (second compound 10 µM, first compound 0.00316 µM) of 87.5% and a viability, T/C (second compound 10 µM, first compound 0.00999 µM) of 91.2%. It also gave a viability, T/C [17] of 78.6%, a viability, T/C (second compound 10 µM, first compound 0.0999 µM) of 109% and a viability, T/C [18] of 104%.
In the case of `CC1COCCN1c1cc(-c2ccnn2C)c2ccnc(-c3ccn[nH]3)c2n1` (stereo unspecified), the viability, T/C (compound 0.0316 µM) is reported as 80.4% and 95.8% and 90.8%, the viability, T/C (compound 0.1 µM) is reported as 67.5% and 75.7% and 62.5% and the viability, T/C (compound 0.316 µM) is reported as 46% and 65.2% and 33.9%. For the same compound, the viability, T/C (compound 1 µM) was 61% and 40% and 50%, the viability, T/C (compound 3.16 µM) was 58% and 48.9% and 43.1% and the viability, T/C (compound 10 µM) was 36.4% and 43.5% and 49.4%. For the same compound, the IC50 (curve of compound) was 1750 nM and 846 nM and 219 nM.
`CC(=O)O[C@H]1C(=O)[C@@]2(C)[C@H]([C@H](OC(=O)c3ccccc3)[C@]3(O)C[C@H](OC(=O)[C@H](O)[C@@H](NC(=O)c4ccccc4)c4ccccc4)C(C)=C1C3(C)C)[C@]1(OC(C)=O)CO[C@@H]1C[C@@H]2O` + Cc1cnc(CNC(=O)c2c(=O)c3ccc(N4CCCN(C)CC4)nc3n3c2sc2ccccc23)cn1 gave an IC50 [1] of 51.4 nM, an IC50 [2] of 95.7 nM and an IC50 [3] of 165 nM. For the same compound, the IC50 [4] was over 10000 nM, the IC50 [5] was 5210 nM and the IC50 [6] was over 10000 nM. It also gave a viability, T/C [7] of 63.1%, a viability, T/C (second compound 0.0316 µM, first compound 0.1 µM) of 32.2% and a viability, T/C [8] of 25.2%. It also gave a viability, T/C (second compound 0.0316 µM, first compound 1 µM) of 32.1%, a viability, T/C (second compound 0.0316 µM, first compound 3.16 µM) of 26.9% and a viability, T/C (second compound 0.0316 µM, first compound 10 µM) of 21.2%. For the same compound, the viability, T/C [9] was 79.2%, the viability, T/C (second compound 0.1 µM, first compound 0.1 µM) was 48.2% and the viability, T/C [10] was 33.7%. For the same compound, the viability, T/C (second compound 0.1 µM, first compound 1 µM) was 18.4%, the viability, T/C (second compound 0.1 µM, first compound 3.16 µM) was 21.3% and the viability, T/C (second compound 0.1 µM, first compound 10 µM) was 32.4%. The viability, T/C [11] was 72.4%, the viability, T/C (second compound 0.316 µM, first compound 0.1 µM) was 56.4% and the viability, T/C [12] was 40.7%. For the same compound, the viability, T/C (second compound 0.316 µM, first compound 1 µM) was 47.4%, the viability, T/C (second compound 0.316 µM, first compound 3.16 µM) was 35% and the viability, T/C (second compound 0.316 µM, first compound 10 µM) was 43.5%. The viability, T/C [13] was 63%, the viability, T/C (second compound 1 µM, first compound 0.1 µM) was 72.2% and the viability, T/C [14] was 43.9%. For the same compound, the viability, T/C (second compound 1 µM, first compound 1 µM) was 60.5%, the viability, T/C (second compound 1 µM, first compound 3.16 µM) was 73.5% and the viability, T/C (second compound 1 µM, first compound 10 µM) was 47.7%. The viability, T/C [15] was 68.7%, the viability, T/C (second compound 3.16 µM, first compound 0.1 µM) was 72.8% and the viability, T/C [16] was 62.6%. The viability, T/C (second compound 3.16 µM, first compound 1 µM) was 66%, the viability, T/C (second compound 3.16 µM, first compound 3.16 µM) was 50.9% and the viability, T/C (second compound 3.16 µM, first compound 10 µM) was 45.2%. For the same compound, the viability, T/C [17] was 62.4%, the viability, T/C (second compound 10 µM, first compound 0.1 µM) was 49.4% and the viability, T/C [18] was 60%. The viability, T/C (second compound 10 µM, first compound 1 µM) was 69.7%, the viability, T/C (second compound 10 µM, first compound 3.16 µM) was 57% and the viability, T/C (second compound 10 µM, first compound 10 µM) was 60.2%.
